Experimental data published in the NIST ThermoML archive (doi:10.1016/j.jct.2016.07.011).

Conditions: Liquid; for mass density / viscosity: 101.33 kPa; for mass density: Vibrating tube method; for viscosity: Falling or rolling sphere viscometry; for vapor or sublimation pressure: Ebulliometric method (Recirculating still)

OCC(F)(F)C(F)(F)C(F)(F)C(F)F [2,2,3,3,4,4,5,5-octafluoro-1-pentanol]
Conditions	mass density [kg/m3]	vapor or sublimation pressure [kPa]	viscosity [mPa·s]
293.15 K	1674.2	–	–
295.65 K	–	–	13.11
297.55 K	–	–	12.16
300.15 K	–	–	10.64
301.55 K	1667	–	–
302.15 K	–	–	9.897
304.15 K	–	–	8.739
306.15 K	1659	–	8.04
307.65 K	–	–	7.416
309.05 K	1655.2	–	–
309.15 K	–	–	7.072
311.65 K	–	–	6.29
312.65 K	1649.2	–	–
313.15 K	–	–	5.94
316.15 K	1643	–	–
318.15 K	–	–	4.822
319.35 K	1636.4	–	–
323.15 K	–	–	3.855
323.25 K	1630.4	–	–
327.05 K	1623.2	–	–
328.15 K	–	–	3.298
330.65 K	1617.8	–	–
333.15 K	–	–	2.782
334.35 K	1609.6	–	–
338.25 K	1603.8	–	–
342.25 K	1596	–	–
413.25 K	–	101.3	–
413.57 K	–	101.3	–

OCC(F)(F)C(F)F [2,2,3,3-tetrafluoro-1-propanol]
Conditions	mass density [kg/m3]	vapor or sublimation pressure [kPa]	viscosity [mPa·s]
293.15 K	1493.2	–	–
295.65 K	–	–	5.029
298.65 K	–	–	4.489
300.15 K	–	–	4.274
301.55 K	1482.8	–	–
302.15 K	–	–	3.794
304.15 K	–	–	3.595
306.15 K	1474.2	–	3.26
307.65 K	–	–	3.067
309.05 K	1468.6	–	–
309.15 K	–	–	2.954
311.65 K	–	–	2.703
312.65 K	1460.2	–	–
313.15 K	–	–	2.568
316.15 K	1454.2	–	–
318.15 K	–	–	2.153
319.35 K	1447.6	–	–
323.15 K	–	–	1.848
323.25 K	1441.8	–	–
327.05 K	1434	–	–
328.15 K	–	–	1.623
330.65 K	1427.4	–	–
333.15 K	–	–	1.408
334.35 K	1416.8	–	–
338.25 K	1409	–	–
342.25 K	1401	–	–
382.28 K	–	101.3	–

CO [methanol]
Conditions	vapor or sublimation pressure [kPa]
337.45 K	101.3
